This passage reports IC50 and Ratio results from EP0923551B1, “4-AMINOETHOXY INDOLONE DERIVATIVES” (AMERICAN HOME PRODUCTS CORPORATION, priority 1996, dated 1998).

The target in this experiment is dopamine autoreceptor (Rattus norvegicus, UniProt P61169). The experiment can be described thus: Affinity for the dopamine autoreceptor, 3H-quinpirole binding in homogenized rat striatal brain tissue. Particulars: for IC50: 3H-quinpirole, homogenized rat striatal brain tissue, read-out: IC50 (nM) D2 Quin.; for Ratio: ratio of IC50 D2 Spiper to IC50 D2 Quin. (LowAg/HighAg, predicts intrinsic activity).
dopamine autoreceptor, sequence (P61169 whole entry): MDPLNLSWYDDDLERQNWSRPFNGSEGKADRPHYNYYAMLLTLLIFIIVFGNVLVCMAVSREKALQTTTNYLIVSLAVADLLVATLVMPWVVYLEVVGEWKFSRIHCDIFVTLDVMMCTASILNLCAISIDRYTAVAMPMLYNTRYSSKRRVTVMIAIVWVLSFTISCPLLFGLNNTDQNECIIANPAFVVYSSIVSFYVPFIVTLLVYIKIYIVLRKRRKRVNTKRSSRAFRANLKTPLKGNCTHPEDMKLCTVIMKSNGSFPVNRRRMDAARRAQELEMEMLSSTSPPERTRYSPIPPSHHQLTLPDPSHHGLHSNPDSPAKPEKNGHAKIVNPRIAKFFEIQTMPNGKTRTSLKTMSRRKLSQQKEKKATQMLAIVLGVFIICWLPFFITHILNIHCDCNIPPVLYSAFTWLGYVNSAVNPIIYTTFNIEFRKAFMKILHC

The term IC50 denotes the concentration at which inhibition is half-maximal. As to `O=C1Cc2c(cccc2OCCNCc2ccccc2)N1` [Example 1, 4-(2-Benzylaminoethoxy)-1,3-dihydro-indol-2-one], the IC50 came out at 0.41 nM and the Ratio is 354.

Take `CNCCOc1cccc2c1CC(=O)N2` [Example 2, 4-(2-Methylamino-ethoxy)-1,3-dihydro-indol-2-one]: the IC50 was 4.31 nM and the Ratio is on record as 213.

Consider `NCCOc1cccc2c1CC(=O)N2` [Example 3, 4-(2-Amino-ethoxy)-1,3-dihydro-indol-2-one], for which the IC50 came to 13.9 nM and the Ratio is reported as 246.

For `O=C1Cc2c(OCCNCc3ccc(F)cc3)ccc(Cl)c2N1` [Example 4], the IC50 came out at 2.54 nM and the Ratio is on record as 69.

With `O=C1Cc2c(OCCNCc3ccc(Cl)cc3)ccc(Cl)c2N1` [Example 5], the IC50 came to 2.81 nM and the Ratio is listed as 19.

For `Cc1ccc(CNCCOc2ccc(Cl)c3c2CC(=O)N3)cc1` [Example 6], the IC50 is 1.1 nM and the Ratio is reported as 52.

With `CN(CCOc1ccc(Cl)c2c1CC(=O)N2)Cc1ccccc1` [Example 7, 4-[2-(N-Benzyl-N-methyl-amino)-ethoxy]-7-chloro-1,3-dihydro-indol-2-one], the IC50 is 3.68 nM and the Ratio is given as 63.

Consider `CCCCNCCOc1ccc(Cl)c2c1CC(=O)N2` [Example 8, 4-(2-Butylamino-ethoxy)-7-chloro-1,3-dihydro-indol-2-one], for which the half-inhibitory concentration (IC50) was determined as 1.89 nM and the Ratio is 76.

As for `O=C1Cc2c(OCCN3CCc4ccccc4C3)ccc(Cl)c2N1` [Example 9, 7-Chloro-4-[2-(3,4-dihydro-1H-isoquinolin-2-yl)-ethoxy]-1,3-dihydro-indol-2-one], the IC50 was found to be 1.31 nM and the Ratio is listed as 62.

On to `O=C1Cc2c(OCCN3Cc4ccccc4C3)ccc(Cl)c2N1` [Example 10, 7-Chloro-4-[2-(1,3-dihydro-isoindol-2-yl)-ethoxy]-1,3-dihydro-indol-2-one], for which the IC50 was determined as 0.55 nM.

Regarding `O=C1Cc2c(OCCNCc3ccc(-c4ccccc4)cc3)ccc(Cl)c2N1` [Example 11, 4-{2-[(Biphenyl-4-ylmethyl)-amino]-ethoxy}-7-chloro-1,3-dihydro-indol-2-one], the IC50 came out at 41.1 nM.

Regarding `O=C1Cc2c(cccc2OCCNCCCCc2ccccc2)N1` [Example 13], the IC50 stood at 0.45 nM and the Ratio is 55.

As to `O=C1Cc2c(OCCNCc3ccccc3)ccc(Cl)c2N1` [Example 14, 4-(2-Benzylamino-ethoxy)-7-chloro-1,3-dihydro-indol-2-one], the IC50 turned out to be 0.82 nM and the Ratio is 44.

In the case of `O=C1Cc2c(OCCNCc3ccccc3)ccc(F)c2N1` [Example 15, 4-(2-Benzylamino-ethoxy)-7-fluoro-1,3-dihydro-indol-2-one], the IC50 amounted to 0.91 nM and the Ratio is reported as 76.

Take `O=C1Cc2c(OCCNCC3CCCCC3)ccc(F)c2N1` [Example 16, 4-[2-(Cyclohexylmethyl-amino)-ethoxy)-7-fluoro-1,3-dihydro-indol-2-one]: the IC50 is 1.58 nM and the Ratio is 63.

For `O=C1Cc2c(OCCNCCCc3c[nH]c4ccccc34)ccc(F)c2N1` [Example 18, 4-{2-[3-(1H-Indol-yl)-propylamino]-ethoxy}-7-fluoro-1,3-dihydro-indol-2-one], the IC50 amounted to 0.3 nM.

Turning to `O=C1Cc2c(OCCN3Cc4ccccc4C3)ccc(F)c2N1` [Example 19, 4-[2-(1,3-Dihydro-isoindol-2-yl)-ethoxy]-7-fluoro-1,3-dihydro-indol-2-one], the IC50 worked out at 3.57 nM.

With `O=C1Cc2c(OCCNCc3ccc(-c4ccccc4)cc3)ccc(F)c2N1` [Example 20, 4-{2-[(Biphenyl-4-ylmethyl)-amino]-ethoxy}-7-fluoro-1,3-dihydro-indol-2-one], the IC50 stood at 11.1 nM.

Take `O=C1Cc2c(OCCNCc3ccc4ccccc4c3)ccc(F)c2N1` [Example 21, 7-Fluoro-4-{2-[(napthalen-2-ylmethyl)-aminol]-ethoxy}-1,3-dihydro-indol-2-one]: the IC50 is 1.27 nM.

In the case of `O=C1Cc2c(OCCN3CCc4ccccc4C3)ccc(F)c2N1` [Example 22, 4-[2-(3,4-Dihydro-1H-isoquinolin-2-yl)-ethoxy]-7-fluoro-1,3-dihydro-indol-2-one], the IC50 was 1.84 nM.

For `CN(CCOc1cccc2c1CC(=O)N2)Cc1ccccc1` [Example 25, 4-[2-(Benzyl-methyl-amino)-ethoxy]-1,3-dihydro-indol-2-one], the IC50 is 1.52 nM and the Ratio is given as 424.

Turning to `Cc1cccc(CN(CCOc2cccc3c2CC(=O)N3)Cc2cccc(C)c2)c1` [Example 26, 4-{2-[Bis-(3-methyl-benzyl)-amino]-ethoxy}-1,3-dihydro-indol-2-one], the IC50 turned out to be 31.2 nM and the Ratio is recorded as 619.

With `CN(CCCC(=O)c1ccc(F)cc1)CCOc1cccc2c1CC(=O)N2` [Example 27, 4-(2-{[4-(4-Fluoro-phenyl)-4-oxo-butyl]-methyl-amino}-ethoxy)-1,3-dihydro-indol-2-one], the IC50 was 6.22 nM and the Ratio was 57.
